# Measured values from patent US20150366787A1, “SESBANIA ACULEATA EXTRACTS AND METHODS OF USE” (AVON PRODUCTS, INC., priority 2013, published 2015).
# System: dorsal forearm skin
# Assay: In vivo biopsy (dorsal forearm, histology)
# Set-up: species or system human
# Details: 3 weeks semi-occlusion patch, retinol 0.05%
# Experimental: Healthy female Caucasian subjects aged 30-65, with skin type II or III and mild to moderate photo damage, were treated on the dorsal forearm for 3 weeks (3 consecutive rounds of 5×24 hour) under semi-occlusion patches. Test articles including active ingredients, vehicle controls, and retinol were applied in a randomized allocation on 6 sites on each forearm. The application dose was 2 mg/cm^2. After 3 week treatment, a 2 mm punch biopsy was obtained from each treatment site and fixed in 10% buffered formalin. Tissue samples then embedded in paraffin, sectioned (5 μm thickness), and stained for skin markers after re-hydration. […] Retinol at a active concentration of 0.05% was used a positive control. Retinol use at a 0.05% active concentration in the semi-occlusion patch vehicle formulation yielded a visual score of approximately 0.56 out of a 4 point scale in HE staining (measuring hematoxylin and eosin staining, an indication of viable epidermal thickness and health) with 63.6% of the subjects showing an improvement; a visual score of 0.6 out of a 4 point scale in M-TC staining (Masson's trichrome staining, assessing total mature fiber-forming collagen in the dermis—mainly Collagen I, […] and Collagen V) with 51.6% of the subjects showing an improvement; a visual score of 0.52 out of a 4 point scale for pro-Col (measuring new synthesis of Collagen I by skin fibroblasts in the dermis) with 51.6% of the subjects showing an improvement; and a visual score of 0.57 out of a 4 point scale for HA (measuring level of hyaluronic acid in both dermis and epidermis) with 50% of the subjects showing an improvement.
# [1] = out of a 4 point scale, extract 0.33%
structure (smiles),measurement,setting,value
CC1=C(/C=C/C(C)=C/C=C/C(C)=C/CO)C(C)(C)CCC1 [Retinol],"subjects showing an improvement, HA",extract 0.33%,50%
same,"subjects showing an improvement, HE staining",extract 0.33%,63.6%
same,"subjects showing an improvement, M-TC staining",extract 0.33%,51.6%
same,"subjects showing an improvement, pro-Col",extract 0.33%,51.6%
same,visual score in HE staining (viable epidermal thickness and health),"out of a 4 point scale, 2 mg/cm^2, extract 0.33% (Example 1B ethanol/water extract)",approximately 0.56
same,visual score for HA (hyaluronic acid in dermis and epidermis),[1],0.57
same,visual score for pro-Col (new synthesis of Collagen I),[1],0.52
same,visual score in M-TC staining (total mature fiber-forming collagen in the dermis),[1],0.6
